Data set [1] has as its system UT-SCC-42B. Briefly: High throughput drug screening (CellTiter-Glo, DSS). Format: cell-based, human. The following applies: for drug sensitivity score (DSS): 72 h, 10-100,000 nM, myogel, non-irradiated; for delta DSS (ΔDSS): DSS irradiated (2 Gy) minus DSS non-irradiated, >5 synergy, <–5 antagonism. The protocol: (§1) The MPMs were screened against a panel of […] different cell lines (HSC-3, UT-SCC-8, UT-SCC-24A, UT-SCC-24B, UT-SCC-42A, UT-SCC-42B and NOF) at the High Throughput Biomedicine Unit (HTB) at the Institute for Molecular Medicine Finland (FIMM). On day 1, black-walled 384-well plates were coated with 5 µl diluted myogel (0.5 mg/ml) per well using an automated reagent dispenser (MultiFlo FX, BioTek, Winooski, VT, United States). On day 2, 500 cells per well were seeded in 20 µl of complete media using the MultiFlo FX (BioTek), and the cells were left to adhere overnight. On day 3, the MPMs, cisplatin, DMSO and Benzethonium chloride were added to the cells using an automatic liquid handler (Echo 550, Labcyte Inc., San Jose, CA, United States). Cisplatin and the MPMs were added to yield five different concentrations in a ten-fold dilution series ranging from 10 to 100,000 nM. Each concentration was tested in triplicate wells. DMSO (0.1%) and benzethonium chloride (100 µM) served as negative and positive control, respectively. Three hours later, some of the plates were irradiated with 2 Gy in a gamma irradiator (OB29/4, STS, Braunschweig, Germany). All plates were taken to the irradiation room to ensure similar handling of the plates. 72 h later, the plates were cooled to room temperature before 25 µl of CellTiter-Glo 2.0 reagent (Promega, Madison, WI, USA) was added to each well using the MultiFlo FX (BioTek). Next, the plates were centrifuged for 5 min at 1,000 rpm before the luminescence signal was measured with the PHERAstar FS HT reader (BMG LABTECH GmbH, Ortenberg, Germany). The raw data was analyzed with the Breeze software (https://breeze.fmm.fi), which normalized the luminescence signal from treated cells against the signal from negative and positive control cells to calculate the percentage of inhibition and generate dose-response curves, which were then used to calculate drug sensitivity scores (DSS). The DSS is a parameter which combines the IC50, the slope of the dose-response curve, and the minimum and maximum responses into a single metric, as previously described ([Yadav et al., 2014]). Quality control was performed by calculation of the Z′-factor, which was >0.7 for all cell lines, indicating high quality of the assay ([Zhang et al., 1999]).
(In general: In ATP-based viability assays light output follows the ATP content of the culture.)

In data set [2] the test system is UT-SCC-106A. The data set is described as above. It is filed as cell-based, human. The following applies: for drug sensitivity score (DSS): 72 h, 10-100,000 nM, myogel, non-irradiated; for delta DSS (ΔDSS): DSS irradiated (2 Gy) minus DSS non-irradiated, >5 synergy, <–5 antagonism. The protocol:
as §1

Data set [3] relates to UT-SCC-24B. The data set is described as above. As to conditions: for drug sensitivity score (DSS): 72 h, 10-100,000 nM, myogel, non-irradiated; for delta DSS (ΔDSS): DSS irradiated (2 Gy) minus DSS non-irradiated, >5 synergy, <–5 antagonism. Format: cell-based, human. The protocol:
as §1

For data set [4], the system named is UT-SCC-24A. Described as above. It is filed as cell-based, human. The following applies: for drug sensitivity score (DSS): 72 h, 10-100,000 nM, myogel, non-irradiated; for delta DSS (ΔDSS): DSS irradiated (2 Gy) minus DSS non-irradiated, >5 synergy, <–5 antagonism. How it is done:
as §1

The subject of data set [5] is UT-SCC-8. The description is as above. It is filed as cell-based, human. The following applies: for drug sensitivity score (DSS): UT-SCC-8, 72 h, 10-100,000 nM, myogel, non-irradiated; for delta DSS (ΔDSS): UT-SCC-8, DSS irradiated (2 Gy) minus DSS non-irradiated, >5 synergy, <–5 antagonism. How it is done:
as §1

Data set [6] concerns HSC-3. The description is as above. Format: cell-based, human. As to conditions: for drug sensitivity score (DSS): HSC-3, 72 h, 10-100,000 nM, myogel, non-irradiated; for delta DSS (ΔDSS): HSC-3, DSS irradiated (2 Gy) minus DSS non-irradiated, >5 synergy, <–5 antagonism. The protocol: as §1
Data set [7] concerns UT-SCC-42A. Described as above. The following applies: for drug sensitivity score (DSS): 72 h, 10-100,000 nM, myogel, non-irradiated; for delta DSS (ΔDSS): DSS irradiated (2 Gy) minus DSS non-irradiated, >5 synergy, <–5 antagonism. It is filed as cell-based, human. The protocol: as §1
Data set [8] concerns NOF (normal oral fibroblasts). Described as above. It is filed as cell-based, human. As to conditions: for drug sensitivity score (DSS): 72 h, 10-100,000 nM, myogel, non-irradiated; for delta DSS (ΔDSS): DSS irradiated (2 Gy) minus DSS non-irradiated, >5 synergy, <–5 antagonism. How it is done:
as §1

Data set [9] has as its system human red blood cells. Briefly: Hemolysis assay. Format: cell-based. As to conditions: for EC50: Homo sapiens, Erythrocyte, 1 h, 37°C, highest concentration tested 500 μM, average of three experiments, read-out: EC50 hemolytic activity against human red blood cells. The protocol: The hemolytic effect of the MPMs was determined using a hemolysis assay as previously described ([Paulsen et al., 2021]). Briefly, hemolysis was determined using a heparinized fraction (10 IU/mL) of freshly drawn blood. The blood collected in ethylenediaminetetraacetic acid-containing test tubes (Vacutest, KIMA, Arzergrande, Italy) was used for the determination of the hematocrit (hct). The heparinized blood was washed 3 × with pre-warmed phosphate-buffered saline (PBS) and adjusted to a final hct of 4%. MPMs in DMSO (50 mM) were added to a 96-well polypropylene V-bottom plate (NUNC, Fisher Scientific, Oslo, Norway) and serially diluted. The test concentration range was 4–500 μM with DMSO contents ≤1%. A solution of 1% triton X-100 was used as a positive control for 100% hemolysis. As a negative control, a solution of 1% DMSO in PBS was included. Red blood cells (1% v/v final concentration) were added to the well plate and incubated at 37°C and 800 rpm for 1 h. After centrifugation (5 min, 3000 g), 100 μL from each well was transferred to a 96-well flat-bottomed microtiter plate, and absorbance was measured at 545 nm with a microplate reader (VersaMaxTM, Molecular Devices, Sunnyvale, CA, United States). The percentage of hemolysis was calculated as the ratio of the absorbance in the MPM treated and surfactant-treated samples, corrected for the PBS background. Three independent experiments were performed, and EC50 values are presented as averages.

For data set [10], the system named is Pseudomonas aeruginosa ATCC 27853. Briefly: Bacterial minimum inhibitory concentration (broth microdilution). Format: cell-based. The following applies: ATCC27853; Pseudomonas aeruginosa ATCC 27853, 48 h, 35 °C, di-TFA salts. How it is done: (§2) Method for determination of bacterial minimum inhibitory concentration (MIC) Stock solutions of the water-soluble compounds were prepared by dissolving them in ultrapure water (Milli-Q H2O, Millipore, MA, USA). The less water-soluble compounds were first dissolved in 25 - 50 µL 100% DMSO before further dilution with ultrapure water. The DMSO concentration was always less than 1% in the working concentration of each compound. A modified broth microdilution susceptibility test based on the CLSI M07-A9 protocol, [2] was used to determine minimal inhibitory concentrations (MIC). Briefly, the test compounds were two-fold diluted with ultrapure water in polystyrene 96-well flat-bottom microplates (NUNC, Roskilde, Denmark). The bacterial inoculum was diluted to 2.5 - 3 x 10^4 cells/mL in Mueller-Hinton broth (MHB, Difco Laboratories, USA) and added to the different diluted compounds in a ratio of 1:1. Positive control (ciprofloxacin, Sigma-Aldrich, USA), negative control (bacteria + water), and media control (media + water) were included in each experiment. The microplates were incubated for 48 h at 35 °C in an EnVision microplate reader (PerkinElmer, Waltham, MA, USA). The lowest concentration of compounds that caused no bacterial growth, as determined by optical density (OD600) measurements, was defined as the MIC value. All compounds were tested in 3 technical replicates.
(§3) Supplementary Video S1. HSC-3 cells were seeded at 100% confluence and a standard scratch wound migration assay was performed. The cells were imaged every 2 hours for 24 hours. The video
Background: Dilution methods test growth across graded concentrations, often in twofold steps.

In data set [11] the test system is Escherichia coli ATCC 25922. Described as above. It is filed as cell-based. As to conditions: ATCC25922; Escherichia coli ATCC 25922, 48 h, 35 °C, di-TFA salts. How it is done: as §2, §3
In data set [12] the test system is Staphylococcus aureus ATCC 9144. The data set is described as above. Format: cell-based. As to conditions: ATCC9144; Staphylococcus aureus ATCC 9144, 48 h, 35 °C, di-TFA salts. The protocol: as §2, §3
For data set [13], the system named is Bacillus subtilis 168. The data set is described as above. As to conditions: Bacillus subtilis 168, 48 h, 35 °C, di-TFA salts. It is filed as cell-based. How it is done:
as §2, §3

SMILES strings stand for the structures.

As a reminder, the EC50 is the concentration needed to bring the measured effect to its halfway point. The MIC is the lowest concentration that inhibits growth of the organism. On to `CNCCCCN1C(=O)N(CCCCNC)C(=O)C(CCCc2ccccc2)(CCCc2ccccc2)C1=O` [MPM-4:1], for which the “drug sensitivity score (DSS)” value in data set [1] is listed as 10,2; in data set [2], 15,8; in [3], 16,4; in data set [4] it was 15,5; in [5] it was 14,5; in [6], 14,8. In addition, the “drug sensitivity score (DSS)” value in data set [7] is on record as 9,9; in [8] it was 18,5. Also, the “delta DSS (ΔDSS)” value is listed as -1,1 in data set [1]; -0,8 in data set [2]; -0,5 in data set [3]; -1,6 in [4]; 0,6 in data set [5]; -0,4 in data set [6]. For the same compound, the figures for the “delta DSS (ΔDSS)” value in data set [7] and in data set [8] were -0,1 and -0,8, respectively. Besides, the EC50 in data set [9] is over 500 µM. In addition, the MIC is over 64 µg/mL in [10], over 64 µg/mL in data set [11], 32 µg/mL in data set [12] and 8 µg/mL in data set [13].
With `CN(C)CCN1C(=O)N(CCN(C)C)C(=O)C(CCCc2ccccc2)(CCCc2ccccc2)C1=O` [MPM-2:2], the “drug sensitivity score (DSS)” value in data set [1] is on record as 12,9; in [2], 18,6; in data set [3], 17,8; in data set [4], 18,1; in data set [5], 17; in data set [6] it was 16,8. Besides, the “drug sensitivity score (DSS)” value is on record as 13,4 in [7] and 19,2 in [8]. The “delta DSS (ΔDSS)” value in [1] is -0,4; in data set [2], -1,5; in data set [3] it was -1,5; in data set [4], -0,4; in [5], 0,2; in data set [6] it was 1,4. The “delta DSS (ΔDSS)” value in [7] was 0,9; in data set [8], -1,2. Further, in [9], the EC50 is over 500 µM. Moreover, the MIC was over 64 µg/mL in data set [10], 32 µg/mL in data set [11], over 64 µg/mL in data set [12] and 32 µg/mL in data set [13].
As for `NCCCN1C(=O)N(CCCN)C(=O)C(CCCc2ccccc2)(CCCc2ccccc2)C1=O` [MPM-3:0], the “drug sensitivity score (DSS)” value is given as 10,1 in [1]; 17,1 in [2]; 18 in data set [3]; 14,3 in data set [4]; 16,5 in [5]; 16,1 in data set [6]. The “drug sensitivity score (DSS)” value in data set [7] is on record as 11,7; in data set [8] it was 18,3. Also, the “delta DSS (ΔDSS)” value in data set [1] is given as -0,1; in data set [2], -0,6; in data set [3], -0,6; in data set [4], -1,8; in [5], -0,6; in data set [6] it was 0. Besides, the “delta DSS (ΔDSS)” value was -1,1 in data set [7] and -0,6 in data set [8]. The EC50 in [9] is over 500 µM. The MIC in data set [10] amounted to 64 µg/mL; in [11], 64 µg/mL; in [12], 32 µg/mL; in [13], 16 µg/mL.
On to `NCCCCCN1C(=O)N(CCCCCN)C(=O)C(CCCc2ccccc2)(CCCc2ccccc2)C1=O` [MPM-5:0], for which the “drug sensitivity score (DSS)” value in data set [1] is 11,5; in data set [2], 17,9; in [3], 18,2; in data set [4], 17,4; in [5], 18,1; in data set [6], 17,6. The “drug sensitivity score (DSS)” value is 13,5 in data set [7] and 19 in [8]. Also, the “delta DSS (ΔDSS)” value in [1] is recorded as -0,5; in [2], -1; in data set [3], -0,5; in data set [4], -1,2; in data set [5], 0,4; in data set [6], 0,2. Besides, the “delta DSS (ΔDSS)” value in [7] is -0,8; in [8], -1,2. The half-maximal effective concentration (EC50) in [9] was 313 µM. Further, the “hemolytic activity against red blood cells (in words)” value in [9] (test range 4–500 μM) was “the second lowest RBC EC50”. The minimum inhibitory concentration (MIC) in data set [10] turned out to be 32 µg/mL; in data set [11], 32 µg/mL; in data set [12] it was 8 µg/mL; in [13] it was 4 µg/mL.
